The values below come from patent publication US20100112173A1, “ADDITIVE TO LOW-ALCOHOL OR SOFT DRINKS AND METHODS OF CONDITIONING DRINKS” (priority 2007, published 2010).

A short description of data set [1]: Bioavailability / metabolism of the selenium compound.
The conditions of data set [2]: cited from earlier work.
The nature of data set [3]: Comparative toxicometry, Lim sub ch (30 days). In kind it is in vivo.
Data set [4] can be described thus: Comparative toxicometry, K sim coefficient. In kind it is in vivo.
Data set [5] is described as follows: Comparative toxicometry, DL 50 ks.
The nature of data set [6]: Hazard (toxicity) class assignment.
Data set [7] in a line: Comparative toxicometry, DL 50 m.
For data set [8] the following is noted: cited from earlier work. The source holds these as a separate data set.

For `Cc1n[nH]c(C)c1[Se]c1c(C)n[nH]c1C` [DMDPS (Selekor-S), Di-(3,4)-methyldipyrazolylselenide], the “metabolism (bioavailability)” value in data set [1] is reported as 85-95%. The Maximum allowable concentrations in data set [2] is 8,100 μg/kg. The “ADI (human)” value in data set [2] (human) was more than 0.02 mg/kg. Also, the “Lim sub ch (30 days)” value in data set [3] lay within 400 to 800 mg/kg. Besides, the “K sim (Limetal)” value in data set [4] (Limetal) is given as “(>6)”. Moreover, in data set [4], the “K sim (according to Yu. S. Kogan)” value is given as “(5)”. In addition, in data set [5], the “DL 50 ks” value was 6,000-8,100 mg/kg. In addition, the “hazard class according to Zaugolnikov Table” value in data set [6] is recorded as “fourth hazard class”. Also, the “DL 50 m” value in data set [7] is 4,800-6,000 mg/kg.

With `O=[Se](=O)(O)O` [sodium selenate], the “class of hazard subject to GOST 12.1.007-76” value in data set [8] is recorded as 1 (first) class of hazard.

On to `O=[Se]([O-])[O-].[Na+].[Na+]` [Na2SeO3, sodium selenite, reference compound], for which, in data set [2] (human), the “ADI (human)” value is 0.0007 mg/kg and the “MAC (human)” value is listed as 0.1 mg/m^3. The “K sim (according to Yu. S. Kogan)” value in data set [4] is listed as “(1.6)”. In addition, the “DL 50 ks” value in data set [5] fell in the range of 7 to 14 mg/kg. The “class of hazard subject to GOST 12.1.007-76” value in data set [8] is 1 (first) class of hazard. In addition, the “DL 50 m” value in data set [7] is 6 mg/kg.
